# Test results as given in patent US20190298666A1, “PROMOTION OF T LYMPHOCYTE PROLIFERATION” (Regents of the University of Minnesota, priority 2018, published 2019).
# How the values were obtained:
# [1] = test system: MCF-7 breast cancer cells; assay: MTT assay of cell numbers, MCF-7; type: cell-based; details: 0-50 uM, 24 hours, concentrations that induce CD4 and CD8 T cell growth
# Procedure: (§1) FIGS. 1A-B. Freshly harvested C57BL/6 splenocytes were seeded at 80,000 cells/well in a 96-well plate coated with anti-mouse CD3 (10 ug/ml) and anti-mouse CD28 (1 ug/ml) antibodies. After 24 hour incubation with HBB (0-50 uM), cells were then labeled with anti-mouse CD4-eFlour450, anti-mouse CD8 FITC and anti-mouse Thy1.2 APC-eFluor780 antibodies and analyzed by a flowcytometer. Thy1.2 positive single lymphocytes were gated as T cells and CD4 positive and CD8 positive cells were counted. FIG. 1A. Results are expressed as mean±S.D. (n=6). FIG. 1B. MCF-7 breast cancer cells were incubated in the same concentration range of HBB, also for 24 hours. MTT assay of cell numbers.
# [2] = test system: Naive, non-Treg CD4 T cells; assay: iTreg differentiation; type: cell-based; details: IL2 and TGFb, 3 days
# Procedure: Naive, non-Treg CD4 T cells were first isolated (these are isolated by magnetic depletion on CD8, CD11b, CD11c, CD19, CD24, CD25, CD44, CD49b, CD105, MHC-II, Gr1, Ter119, B220, TCRg/d). These cells were stimulated with plate bound anti-CD3/CD28 (plates were coated with 5 ug/mL for 2 hours at 37° C.) and given 100 U/mL IL2, 5 ng/mL TGFb and an additional 1 ug/mL anti-Cd28 in cRPMI. After 3 days the cells were stained for CD4, CD8 and CD25 with FOXP3 being on the GFP reporter. Tregs are defined here as CD25+FOXP3+. For this assay, 300,000 cells were plated per well in a 24 well plate.
# [3] = test system: CD4+CD25−FOXP3+ progenitor cells; assay: TRP conversion assay (IL2-dependent conversion into Tregs); type: cell-based; details: 1 U/mL IL2, 3 days
# Description: (§2) Each TRP (CD4+CD25+FOXP3- or CD4+CD25−FOXP3+) population was isolated by FACS and stimulated with 1 U/mL IL2 (in complete RPMI) for 3 days then analyzed for upregulation of CD25 and FOXP3 (by GFP reporter).
# [4] = test system: CD4+CD25+FOXP3- progenitor cells; assay: as above; type: cell-based; details: 1 U/mL IL2, 3 days
# Description: as §2
# CYP3A4 [5] = target: T1, CYP3A4 (Homo sapiens, UniProt P08684); details: compared with metformin; cited from earlier work
# [6] = test system: breast cancer cell lines and established mouse mammary tumors; details: cited from earlier work
# CYP3A4 [7] = target: T1, CYP3A4; details: cited from earlier work
# CD8+ T lymphocytes = assay: T cell proliferation, mouse splenocytes with anti-CD3 and anti-CD28 antibodies, flow cytometry; type: cell-based, C57BL/6J mouse
# Procedure: as §1
# (§3) FIG. 4. Freshly harvested C57BL/6 splenocytes were seeded at 80,000 cells/well in a 96-well plate coated with anti-mouse CD3 (10 ug/ml) and anti-mouse CD28 (1 ug/ml) antibodies. After 24 hour incubation with metformin (0-10 mM), cells were then labeled with anti-mouse CD4-eFlour450, anti-mouse CD8 FITC and anti-mouse Thy1.2 APC-eFluor780 antibodies and analyzed by a flowcytometer. Thy1.2 positive single lymphocytes were gated as T cells and CD4 positive and CD8 positive cells were counted.
# (§4) HBB effects on T cell growth were tested across a range of concentrations (0 to 50 uM). C57BL/6J mouse splenocytes were incubated with or without biguanides in the presence of anti-mouse CD3 and anti-mouse CD28 antibodies. After 24 hours, cells were labeled with fluorescently tagged antibodies to mouse Thy-1, CD4, CD8, CD25, CD44, CD62L and CD73 surface antigens and T cell subsets were analyzed by flow cytometry.
# CD4+ T lymphocytes = assay: as above; type: cell-based, C57BL/6J mouse
# Procedure: as §1, §3, §4
# [8] = test system: CD4+ and CD8+ T lymphocytes; assay: T cell growth/proliferation, mouse splenocytes with anti-CD3 and anti-CD28 antibodies, flow cytometry; type: cell-based, C57BL/6J mouse
# Procedure: as §1, §3, §4
# [9] = rodents; cited from earlier work
# T1 sequence (P08684 whole entry): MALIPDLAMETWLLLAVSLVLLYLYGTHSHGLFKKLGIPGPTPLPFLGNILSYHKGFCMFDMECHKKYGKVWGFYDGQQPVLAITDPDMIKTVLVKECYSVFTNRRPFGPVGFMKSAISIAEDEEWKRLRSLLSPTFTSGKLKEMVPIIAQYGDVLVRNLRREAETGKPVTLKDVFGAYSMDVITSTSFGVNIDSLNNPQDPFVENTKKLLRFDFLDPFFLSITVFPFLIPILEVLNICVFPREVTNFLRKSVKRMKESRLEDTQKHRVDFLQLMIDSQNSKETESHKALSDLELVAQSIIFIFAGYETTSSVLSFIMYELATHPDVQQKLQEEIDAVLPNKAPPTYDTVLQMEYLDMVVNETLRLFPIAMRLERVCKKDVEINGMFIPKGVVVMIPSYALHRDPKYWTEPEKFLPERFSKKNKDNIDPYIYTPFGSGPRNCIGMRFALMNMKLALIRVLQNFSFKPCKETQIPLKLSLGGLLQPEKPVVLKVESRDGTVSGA
structure (smiles),measurement,setting,value
"CCCCCCNC(=N)NC(=N)NCc1ccccc1 [HBB, N1-hexyl-N5-benzyl biguanide]",growth of MCF-7 breast cancer cells,[1],inhibit growth
same,FOXP3 and CD25 expression of the Treg cells generated,[2],expressed less FOXP3 and CD25
same,differentiation of naive T cells into Tregs,[2],inhibits
same,IL2-dependent conversion into Tregs,[3],blocks
same,IL2-dependent conversion into Tregs,[4],blocks
same,affinity for the CYP3A4 heme,CYP3A4 [5],higher affinity than metformin
same,concentration range of activity against breast cancer cells,[6],~20 µM
same,IC50,"[6]; read-out: IC50, OCR and growth inhibition",3 to 30 µM
same,inhibition of CYP3A4 AA epoxygenase activity,CYP3A4 [7],potently and specifically inhibits
same,proliferation of CD8+ T lymphocytes,"CD8+ T lymphocytes; 6 to 12 uM, P<0.05",1.6 fold
same,increase of CD8+ T cells,CD8+ T lymphocytes; 6 to 12 microM,60%
same,effectiveness for expansion of CD8+ T cells ex vivo relative to metformin,CD8+ T lymphocytes; at 1000-fold lower concentration than metformin,5 fold
same,proliferation of CD4+ T lymphocytes,"CD4+ T lymphocytes; 6 to 12 uM, P<0.05",1.9 fold
same,increase of CD4+ T cells,CD4+ T lymphocytes; 6 to 12 microM,90%
same,effectiveness for expansion of CD4+ T cells ex vivo relative to metformin,CD4+ T lymphocytes; at 1000-fold lower concentration,3 fold
same,greater potency for T cell effects relative to metformin,[8],1000 fold
same,T cell growth at low concentrations,"[8]; 0.09 to 1.5 uM, 24 hours",did not inhibit
"CN(C)C(=N)N=C(N)N [metformin, reference compound]",concentration range of activity against breast cancer cells,[6],~5000 µM
same,maximum tissue concentrations,[9],about 500 microM
same,increase of CD8+ T cells,CD8+ T lymphocytes; 10 mM,14%
same,increase of CD4+ T cells,CD4+ T lymphocytes; 10 mM,30%
same,proliferation-inducing activity for T cells,[8]; concentrations below 5 mM,failed to show proliferation-inducing activity
same,concentrations causing an increase of CD4+ and CD8+ T lymphocytes,"[8]; metformin, 24 hours, FIG. 4",> 5 mM
